Results on 26 molecules are retold here after the supplement of paper PMC8497498.

Structures can show the parent of a compound that is named as a salt.

The test system of experiment [1] is Plasmodium vivax liver stage (primary human hepatocyte culture). On the procedure: (§1)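 Dose-response of P. vivax liver stages in primary human hepatocytes, with 8 points (10 uM-[…], v1) or 12 points in duplicate (50 uM-280 pM, v2). Read-out is high-content imaging of schizont net growth area, hypnozoite quantity and hepatic nuclei. EC50 and CC20 (20% nuclei loss) were fitted in CDD Vault from the highest-quality independent experiment; toxic-dose bell-shaped points were masked. '>' marks the highest concentration with less than 50% activity, and ND means a non-sigmoidal curve.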

For experiment [2], the system named is primary human hepatocytes. Description: CC20 hepatic nuclei (20% reduction); higher = less toxic. On the procedure: as §1
The test system of experiment [3] is Plasmodium vivax liver stage (primary human hepatocyte culture). Put plainly: maximum inhibition of schizont net growth area; higher = more active. Here is the method: as §1
[4] abbreviates: P. vivax isolate: Pv923, hepatocyte lot: BGW, assay mode: Radical Cure, 8-day (treatment from day 5 post-infection).
Setting [5] is: P. vivax isolate: Pv914, hepatocyte lot: BGW, assay mode: Prophylactic, 6-day.
Setting [6] is: P. vivax isolate: Pv728, hepatocyte lot: BGW, assay mode: Radical Cure, 8-day (treatment from day 5 post-infection).
[7] abbreviates: P. vivax isolate: Pv756, hepatocyte lot: BGW, assay mode: Radical Cure, 8-day (treatment from day 5 post-infection).
Setting [8] is: P. vivax isolate: Pv836, hepatocyte lot: BGW, assay mode: Radical Cure, 8-day (treatment from day 5 post-infection).
Where [9] appears, read: P. vivax isolate: Pv922, hepatocyte lot: BGW, assay mode: Radical Cure, 8-day (treatment from day 5 post-infection).
Where [10] appears, read: P. vivax isolate: Pv357, hepatocyte lot: UBV, assay mode: Radical Cure, 8-day (treatment from day 5 post-infection).
Where [11] appears, read: P. vivax isolate: Pv360, hepatocyte lot: UBV, assay mode: Radical Cure, 8-day (treatment from day 5 post-infection).

For `Cc1ncc(-c2ccnc(Nc3ccc(S(C)(=O)=O)cc3)n2)n1C(C)C`, in experiment [1] (setting [4]), the EC50 hypnozoite quantity was > 50 µM and the “EC50 schizont net growth area” value was > 50000 nM. In experiment [2] (setting [4]), this molecule showed a CC20 hepatic nuclei of 1.82 µM. In addition, in experiment [3] (setting [4]), the maximum inhibition amounted to 69.4%.

For the molecule `Cc1c(Oc2cnc(C(=O)N3CC(C)(O)C3)cn2)ccc2c1B(O)OC2`, in experiment [1] (setting [5]), the EC50 hypnozoite quantity was > 1.11 µM and the “EC50 schizont net growth area” value amounted to 1630 nM. Besides, in experiment [2] (setting [5]), the CC20 hepatic nuclei was > 10 µM. In experiment [3] (setting [5]), the maximum inhibition came to 99.7%.

In the case of `Cc1cc(Nc2ccc(C(F)(F)F)nc2)n2nc(C(C)(F)F)nc2n1`, in experiment [1] (setting [5]), the EC50 hypnozoite quantity is > 10 µM and the “EC50 schizont net growth area” value was found to be 325 nM. Further, the CC20 hepatic nuclei in experiment [2] (setting [5]) was > 10 µM. In addition, the maximum inhibition in experiment [3] (setting [5]) was 98.8%.

Take `CCc1cc(=O)n(C)c(SC(C)C(=O)Nc2ccc(F)cc2)n1` (centres undefined): in experiment [1] (setting [4]), the EC50 hypnozoite quantity is > 50 µM and the “EC50 schizont net growth area” value is > 16700 nM. In addition, in experiment [2] (setting [4]), the CC20 hepatic nuclei was > 50 µM. Also, the maximum inhibition in experiment [3] (setting [4]) stood at 87.6%.

Turning to `CN(C)C(=S)NN=C1C(=O)Nc2ccccc21`, in experiment [1] (setting [4]), the “EC50 schizont net growth area” value was > 16700 nM. In addition, the CC20 hepatic nuclei in experiment [2] (setting [4]) was 40.3 µM. Besides, the maximum inhibition in experiment [3] (setting [4]) came out at 66.1%.

With `COc1ccc(C(=O)C(CCC(CNC(C)(C)C)C(=O)c2ccc(OC)cc2)CNC(C)(C)C)cc1` (centres undefined), in experiment [1] (setting [6]), the EC50 hypnozoite quantity was > 50 µM and the “EC50 schizont net growth area” value was 16600 nM. Besides, in experiment [2] (setting [6]), the CC20 hepatic nuclei was determined as 40.8 µM. The maximum inhibition in experiment [3] (setting [6]) was 88.7%.

On to `COc1ccc(-c2cnc3ccc(N4CCCC4)nn23)cc1OC`, for which, in experiment [1] (setting [7]), the EC50 hypnozoite quantity was > 50 µM and the “EC50 schizont net growth area” value is > 16700 nM. Also, the CC20 hepatic nuclei in experiment [2] (setting [7]) was > 16.7 µM. In addition, the maximum inhibition in experiment [3] (setting [7]) was determined as 103%.

For `COc1cccc(C=Cc2nc(=O)c3ccccc3o2)c1OC`, in experiment [1] (setting [5]), the EC50 hypnozoite quantity was > 10 µM. Besides, the CC20 hepatic nuclei in experiment [2] (setting [5]) is > 10 µM. Further, the maximum inhibition in experiment [3] (setting [5]) was found to be 62.6%.

With `CS(=O)(=O)c1cccc(-c2cnc3[nH]cc(-c4ccc(CCC(=O)O)cc4)c3c2)c1`, in experiment [1] (setting [4]), the EC50 hypnozoite quantity is > 50 µM and the “EC50 schizont net growth area” value was 418 nM. For the same molecule, the CC20 hepatic nuclei in experiment [2] (setting [4]) was > 50 µM. The maximum inhibition in experiment [3] (setting [4]) is 99.2%.

Turning to `Cc1nc(Sc2ncnc3sc4c(c23)CCC4)sc1CC(N)=O`, in experiment [1] (setting [8]), the EC50 hypnozoite quantity is > 50 µM and the “EC50 schizont net growth area” value amounted to 2860 nM. In experiment [2] (setting [8]), the CC20 hepatic nuclei was > 50 µM. Also, in experiment [3] (setting [8]), the maximum inhibition came to 91%.

On to `Cc1sc2ncnc(Sc3nnc(N)s3)c2c1C`, for which, in experiment [1] (setting [9]), the EC50 hypnozoite quantity was > 50 µM and the “EC50 schizont net growth area” value is > 5560 nM. In experiment [2] (setting [9]), the CC20 hepatic nuclei is > 16.7 µM. Further, in experiment [3] (setting [9]), the maximum inhibition is 86.8%.

For `O=C(Nc1ccc(N2CCNCC2)cc1)c1ccn2ncc(-c3cccc(Cl)c3)c2n1`, in experiment [1] (setting [4]), the EC50 hypnozoite quantity was > 50 µM and the “EC50 schizont net growth area” value is > 50000 nM. Besides, the CC20 hepatic nuclei in experiment [2] (setting [4]) was > 1.85 µM. Further, the maximum inhibition in experiment [3] (setting [4]) was 45.8%.

Consider `Cn1c(Sc2ncnc3sccc23)nc2ccccc21`, for which, in experiment [1] (setting [8]), the EC50 hypnozoite quantity is > 50 µM and the “EC50 schizont net growth area” value is > 16700 nM. Also, the CC20 hepatic nuclei in experiment [2] (setting [8]) is 39.4 µM. In addition, the maximum inhibition in experiment [3] (setting [8]) turned out to be 97%.

`O=C(Nc1cccnn1)N1CCC(=Cc2cccc(Oc3ccc(C(F)(F)F)cn3)c2)CC1`: in experiment [1] (setting [6]), the EC50 hypnozoite quantity was > 10 µM and the “EC50 schizont net growth area” value came out at 1230 nM. Moreover, the CC20 hepatic nuclei in experiment [2] (setting [6]) is > 10 µM. The maximum inhibition in experiment [3] (setting [6]) came out at 99%.

On to `O=C(Nc1cc(C(F)(F)F)cc(C(F)(F)F)c1)Nc1ccc(Cl)c(Cl)c1`, for which the EC50 hypnozoite quantity in experiment [1] (setting [9]) is > 50 µM. Also, the CC20 hepatic nuclei in experiment [2] (setting [9]) was > 5.56 µM. Also, the maximum inhibition in experiment [3] (setting [9]) stood at 51.2%.

Consider `NS(=O)(=O)c1cccc(-c2ccc3ncc(N4CCOCC4)nc3c2)c1`, for which, in experiment [1] (setting [7]), the EC50 hypnozoite quantity was > 50 µM and the “EC50 schizont net growth area” value turned out to be 570 nM. For the same molecule, the CC20 hepatic nuclei in experiment [2] (setting [7]) is > 50 µM. Also, the maximum inhibition in experiment [3] (setting [7]) turned out to be 88.2%.

For the molecule `N=c1n(CCN2CCCCC2)c2ccccc2n1CC(O)c1cccc(Br)c1` (centres undefined), in experiment [1] (setting [6]), the EC50 hypnozoite quantity was > 50 µM and the “EC50 schizont net growth area” value was > 16700 nM. The same molecule gave a CC20 hepatic nuclei in experiment [2] (setting [6]) of 41.8 µM. The maximum inhibition in experiment [3] (setting [6]) amounted to 111%.

For the molecule `c1ccn2c(Sc3ncnc4sccc34)ncc2c1`, in experiment [1] (setting [8]), the EC50 hypnozoite quantity was > 50 µM and the “EC50 schizont net growth area” value was > 5560 nM. Moreover, in experiment [2] (setting [8]), the CC20 hepatic nuclei came out at 41.4 µM. For the same molecule, the maximum inhibition in experiment [3] (setting [8]) amounted to 69.4%.

For `CN(Cc1cnc2nc(N)nc(N)c2n1)c1ccc(C(=O)N[C@@H](CCC(=O)O)C(=O)O)cc1` (racemic) [Methotrexate (+/-)], in experiment [1] (setting [5]), the EC50 hypnozoite quantity is > 10 µM and the “EC50 schizont net growth area” value was 42.8 nM. The CC20 hepatic nuclei in experiment [2] (setting [5]) is > 10 µM. Also, the maximum inhibition in experiment [3] (setting [5]) turned out to be 99.1%.

In the case of `c1cc(C2CCC3(CC2)OOC2(O3)C3CC4CC(C3)CC2C4)ccc1OCCN1CCOCC1` (centres undefined) [Artefenomel, OZ439], in experiment [1] (setting [6]), the EC50 hypnozoite quantity was > 50 µM and the “EC50 schizont net growth area” value is 6890 nM. Also, the CC20 hepatic nuclei in experiment [2] (setting [6]) is > 16.7 µM. Moreover, the maximum inhibition in experiment [3] (setting [6]) is 80.3%.

As to `CC(C)(N)CNC(=O)CC1CCC2(CC1)OOC1(O2)C2CC3CC(C2)CC1C3` (centres undefined) [Arterolane, OZ277], in experiment [1] (setting [10]), the EC50 hypnozoite quantity is > 10 µM and the “EC50 schizont net growth area” value was > 10000 nM. The CC20 hepatic nuclei in experiment [2] (setting [10]) is > 10 µM. Also, the maximum inhibition in experiment [3] (setting [10]) was determined as 51.4%.

As for `CC[C@H]1OC(=O)[C@H](C)C(=O)[C@H](C)[C@@H](O[C@@H]2O[C@H](C)C[C@H](N(C)C)[C@H]2O)[C@](C)(OCC=Cc2cnc3ccccc3c2)C[C@@H](C)C(=O)[C@H](C)[C@H]2N=C(O)O[C@@]21C` [Cethromycin], the EC50 hypnozoite quantity in experiment [1] (setting [5]) is > 10 µM. For the same molecule, the CC20 hepatic nuclei in experiment [2] (setting [5]) was > 10 µM. In addition, the maximum inhibition in experiment [3] (setting [5]) came out at 63.3%.

As to `CCN(CC)CCCC(C)Nc1ccnc2cc(Cl)ccc12` (centres undefined) [Chloroquine Diphosphate], in experiment [1] (setting [5]), the EC50 hypnozoite quantity is > 16.7 µM and the “EC50 schizont net growth area” value is > 5560 nM. The CC20 hepatic nuclei in experiment [2] (setting [5]) was > 16.7 µM. Further, the maximum inhibition in experiment [3] (setting [5]) amounted to 99.1%.

With `O=C(O)c1cn(C2CC2)c2cc(N3CCNCC3)c(F)cc2c1=O` [Ciprofloxacin], in experiment [1] (setting [6]), the EC50 hypnozoite quantity is > 10 µM and the “EC50 schizont net growth area” value was > 10000 nM. Also, the CC20 hepatic nuclei in experiment [2] (setting [6]) is > 10 µM. In addition, the maximum inhibition in experiment [3] (setting [6]) worked out at 59.2%.

`CCC[C@@H]1C[C@@H](C(=O)N[C@@H]([C@H]2O[C@H](SC)[C@H](O)[C@@H](O)[C@H]2O)[C@H](C)Cl)N(C)C1` [Clindamycin hydrochloride]: in experiment [1] (setting [5]), the EC50 hypnozoite quantity is > 50 µM and the “EC50 schizont net growth area” value came out at 5.97 nM. The CC20 hepatic nuclei in experiment [2] (setting [5]) is > 50 µM. Besides, the maximum inhibition in experiment [3] (setting [5]) amounted to 79.5%.

For the molecule `CC1CC(C)C(=O)C(C(O)CC2CC(=O)NC(=O)C2)C1` (centres undefined) [Cycloheximide], the values for the EC50 hypnozoite quantity in experiment [1] (setting [11]) and in experiment [1] (setting [5]) were > 10 µM and > 3.33 µM, respectively. The “EC50 schizont net growth area” value in experiment [1] (setting [11]) was determined as 85.6 nM; in experiment [1] (setting [5]), 1390 nM. Besides, the CC20 hepatic nuclei in experiment [2] (setting [11]) and in experiment [2] (setting [5]) was > 10 µM in each case. Also, the maximum inhibition in experiment [3] (setting [11]) is 96.3%; in experiment [3] (setting [5]) it was 99.6%.
